Test results as given in patent publication US20210070748A1, “INHIBITORS OF BRUTONS TYROSINE KINASE” (Pharmacyclics LLC, priority 2015, published 2021).

Assays:
Assay type in all cases: biochemical
[1] = biological target: T1, BTK-WT (Homo sapiens, UniProt Q06187); assay: Btk in vitro inhibitory activity (one of Method A TR-FRET, Method B electrophoretic mobility shift, Method C radiometric filter binding); conditions: D-compounds panel data; read-out: IC50 BTK-WT
T1 construct: purified from insect cells as a full-length construct containing an N-terminal 6X-His tag; His6 (N); made in house; host or cells: insect cells (baculovirus Sf21 in Method B)
T1 sequence (Q06187 whole entry): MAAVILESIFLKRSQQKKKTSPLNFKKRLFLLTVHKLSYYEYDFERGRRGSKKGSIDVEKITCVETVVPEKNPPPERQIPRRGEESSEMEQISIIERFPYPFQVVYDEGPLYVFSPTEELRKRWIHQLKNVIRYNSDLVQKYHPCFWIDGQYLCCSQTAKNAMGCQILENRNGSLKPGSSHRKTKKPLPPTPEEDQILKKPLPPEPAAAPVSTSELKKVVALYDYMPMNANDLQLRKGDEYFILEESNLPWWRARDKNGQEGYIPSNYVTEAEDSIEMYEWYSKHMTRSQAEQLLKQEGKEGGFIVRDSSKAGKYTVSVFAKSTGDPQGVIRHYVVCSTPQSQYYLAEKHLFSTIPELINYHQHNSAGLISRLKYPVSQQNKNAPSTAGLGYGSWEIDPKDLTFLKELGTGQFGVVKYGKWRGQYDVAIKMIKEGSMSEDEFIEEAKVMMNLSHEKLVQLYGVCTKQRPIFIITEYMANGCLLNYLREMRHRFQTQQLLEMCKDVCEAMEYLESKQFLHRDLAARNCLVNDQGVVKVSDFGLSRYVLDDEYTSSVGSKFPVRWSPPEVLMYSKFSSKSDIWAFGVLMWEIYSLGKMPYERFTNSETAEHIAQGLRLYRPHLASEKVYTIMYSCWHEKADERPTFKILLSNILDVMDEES

[2] = biological target: LCK (Homo sapiens, UniProt P06239); assay: Inhibition of a panel of kinases, in vitro HotSpot kinase assay: LCK; conditions: D-compounds panel data; 1 μM ATP; read-out: IC50 LCK
LCK, sequence (P06239 whole entry): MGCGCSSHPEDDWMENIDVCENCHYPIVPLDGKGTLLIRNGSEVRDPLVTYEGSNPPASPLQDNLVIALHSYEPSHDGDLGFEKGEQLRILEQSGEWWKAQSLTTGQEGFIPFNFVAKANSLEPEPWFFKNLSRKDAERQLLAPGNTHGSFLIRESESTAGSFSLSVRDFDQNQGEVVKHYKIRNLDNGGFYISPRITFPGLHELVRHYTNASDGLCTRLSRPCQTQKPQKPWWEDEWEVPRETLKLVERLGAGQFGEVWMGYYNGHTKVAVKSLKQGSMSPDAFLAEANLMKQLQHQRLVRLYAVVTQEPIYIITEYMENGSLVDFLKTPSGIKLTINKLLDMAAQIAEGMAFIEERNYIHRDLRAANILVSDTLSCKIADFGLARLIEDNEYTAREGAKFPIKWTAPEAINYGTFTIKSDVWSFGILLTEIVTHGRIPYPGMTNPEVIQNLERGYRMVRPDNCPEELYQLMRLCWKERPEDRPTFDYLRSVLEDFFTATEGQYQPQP

[3] = biological target: T2, ITK (Homo sapiens, UniProt Q08881); assay: Inhibition of a panel of kinases, in vitro HotSpot kinase assay: ITK; conditions: D-compounds panel data; 1 μM ATP
T2 sequence (Q08881 1-620): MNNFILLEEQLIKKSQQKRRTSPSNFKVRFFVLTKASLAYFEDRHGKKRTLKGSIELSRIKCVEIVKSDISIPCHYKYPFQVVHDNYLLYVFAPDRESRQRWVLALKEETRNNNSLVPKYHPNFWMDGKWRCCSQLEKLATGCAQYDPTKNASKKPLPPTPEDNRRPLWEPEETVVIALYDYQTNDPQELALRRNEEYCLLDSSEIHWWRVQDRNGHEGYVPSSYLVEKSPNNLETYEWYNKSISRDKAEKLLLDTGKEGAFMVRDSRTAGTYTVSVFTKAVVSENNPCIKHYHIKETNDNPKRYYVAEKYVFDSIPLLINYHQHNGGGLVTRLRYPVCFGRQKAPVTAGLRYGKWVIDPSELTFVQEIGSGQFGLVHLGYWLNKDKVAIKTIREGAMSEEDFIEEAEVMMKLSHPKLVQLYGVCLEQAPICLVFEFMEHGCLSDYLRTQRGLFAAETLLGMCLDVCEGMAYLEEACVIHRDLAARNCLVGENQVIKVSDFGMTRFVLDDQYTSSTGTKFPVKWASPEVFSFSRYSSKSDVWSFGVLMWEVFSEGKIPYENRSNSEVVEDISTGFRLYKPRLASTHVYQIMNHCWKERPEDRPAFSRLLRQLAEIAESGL
Experimental: (§1) The degree of inhibition of a panel of kinases is determined using the in vitro HotSpot kinase assay (purified enzymes, ^33P-ATP, an appropriate substrate and 1 μM ATP).

[4] = biological target: SRC (Homo sapiens, UniProt P12931); assay: Inhibition of a panel of kinases, in vitro HotSpot kinase assay: SRC; conditions: D-compounds panel data; 1 μM ATP
SRC, sequence (P12931 whole entry): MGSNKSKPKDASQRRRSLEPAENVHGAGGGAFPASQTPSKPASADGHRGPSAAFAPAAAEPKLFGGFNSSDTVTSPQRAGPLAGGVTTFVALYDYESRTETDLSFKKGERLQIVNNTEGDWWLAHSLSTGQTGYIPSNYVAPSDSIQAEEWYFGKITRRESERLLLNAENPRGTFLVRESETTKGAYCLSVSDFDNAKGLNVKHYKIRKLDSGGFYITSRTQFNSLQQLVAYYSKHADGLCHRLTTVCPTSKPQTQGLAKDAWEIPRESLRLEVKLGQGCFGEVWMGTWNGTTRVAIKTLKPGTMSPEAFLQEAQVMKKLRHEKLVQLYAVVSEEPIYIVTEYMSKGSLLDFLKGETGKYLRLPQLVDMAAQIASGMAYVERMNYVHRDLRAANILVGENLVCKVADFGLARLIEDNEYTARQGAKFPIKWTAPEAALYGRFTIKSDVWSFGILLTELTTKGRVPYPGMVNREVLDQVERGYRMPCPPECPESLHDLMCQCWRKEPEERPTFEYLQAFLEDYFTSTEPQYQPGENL
Experimental: as §1

[5] = biological target: T3, TEC (Homo sapiens, UniProt P42680); assay: Inhibition of a panel of kinases, in vitro HotSpot kinase assay: TEC; conditions: D-compounds panel data; 1 μM ATP
T3 sequence (P42680 1-631): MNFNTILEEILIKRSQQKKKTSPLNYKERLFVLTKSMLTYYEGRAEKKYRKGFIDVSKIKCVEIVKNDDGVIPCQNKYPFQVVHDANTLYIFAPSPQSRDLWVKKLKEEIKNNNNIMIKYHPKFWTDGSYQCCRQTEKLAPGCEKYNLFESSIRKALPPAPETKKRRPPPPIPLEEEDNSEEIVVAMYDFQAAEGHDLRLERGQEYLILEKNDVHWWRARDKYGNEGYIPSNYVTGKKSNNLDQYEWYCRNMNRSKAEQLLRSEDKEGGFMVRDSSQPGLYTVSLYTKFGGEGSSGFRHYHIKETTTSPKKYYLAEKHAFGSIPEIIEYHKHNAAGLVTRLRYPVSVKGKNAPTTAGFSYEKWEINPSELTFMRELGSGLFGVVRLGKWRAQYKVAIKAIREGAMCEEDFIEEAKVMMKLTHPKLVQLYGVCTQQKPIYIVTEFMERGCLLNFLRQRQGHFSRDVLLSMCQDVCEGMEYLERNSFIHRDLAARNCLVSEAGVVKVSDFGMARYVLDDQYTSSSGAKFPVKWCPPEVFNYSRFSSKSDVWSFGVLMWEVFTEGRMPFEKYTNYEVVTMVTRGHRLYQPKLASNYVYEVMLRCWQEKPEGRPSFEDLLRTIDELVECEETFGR
Experimental: as §1

SMILES: C[C@@H]1[C@H](NC(=O)c2ccc(C3CC3)cc2F)CCCN1c1cnc(C(N)=O)c(Nc2nc3c(s2)CN(C)CC3)n1 [Example D-62, 5-[(2R,3R)-3-(4-cyclopropyl-2-fluorobenzamido)-2-methylpiperidin-1-yl]-3-({5-methyl-4H,5H,6H,7H-[1,3]thiazolo[5,4-c]pyridin-2-yl}amino)pyrazine-2-carboxamide]
- IC50 [1]: 100 to 1000 nM
- IC50 [2]: > 10000 nM
- IC50 [3]: > 10000 nM
- IC50 [4]: > 10000 nM
- IC50 [5]: 100 to 1000 nM

SMILES: Cc1csc(Nc2nc(N3CCC[C@@H](NC(=O)c4ccc(C5CC5)cc4F)[C@H]3C)cnc2C(N)=O)n1 [Example D-63, 5-[(2R,3R)-3-(4-cyclopropyl-2-fluorobenzamido)-2-methylpiperidin-1-yl]-3-[(4-methyl-1,3-thiazol-2-yl)amino]pyrazine-2-carboxamide]
- IC50 [1]: 1000 to 10000 nM
- IC50 [2]: > 10000 nM
- IC50 [3]: > 10000 nM
- IC50 [4]: > 10000 nM
- IC50 [5]: > 10000 nM

SMILES: C[C@@H]1[C@H](NC(=O)c2ccc(C3CC3)cc2F)CCCN1c1cnc(C(N)=O)c(Nc2ccc(C3(C)CCN(C4CCCC4)CC3)cc2)n1 [Example D-66, 3-{[4-(1-cyclopentyl-4-methylpiperidin-4-yl)phenyl]amino}-5-[(2R,3R)-3-(4-cyclopropyl-2-fluorobenzamido)-2-methylpiperidin-1-yl]pyrazine-2-carboxamide]
- IC50 [1]: ≤ 10 nM
- IC50 [2]: < 10 nM
- IC50 [3]: 10 to 100 nM
- IC50 [4]: ≤ 10 nM
- IC50 [5]: ≤ 10 nM

SMILES: Cc1cc(Nc2nc(N3CCC[C@@H](NC(=O)N(C)C)[C@H]3CO)cnc2C(N)=O)sn1 [Example D-67, 5-[(2S,3R)-3-[(dimethylcarbamoyl)amino]-2-(hydroxymethyl)piperidin-1-yl]-3-[(3-methyl-1,2-thiazol-5-yl)amino]pyrazine-2-carboxamide]
- IC50 [1]: 10 to 100 nM
- IC50 [2]: 100 to 1000 nM
- IC50 [3]: 1000 to 10000 nM
- IC50 [4]: 100 to 1000 nM
- IC50 [5]: 100 to 1000 nM

SMILES: Cc1cc(Nc2nc(N3CCC[C@H](NC(=O)N(C)C)[C@@H]3CO)cnc2C(N)=O)sn1 [Example D-68, 5-[(2R,3S)-3-[(dimethylcarbamoyl)amino]-2-(hydroxymethyl)piperidin-1-yl]-3-[(3-methyl-1,2-thiazol-5-yl)amino]pyrazine-2-carboxamide]
- IC50 [1]: 1000 to 10000 nM
- IC50 [2]: > 10000 nM
- IC50 [3]: > 10000 nM
- IC50 [4]: 1000 to 10000 nM
- IC50 [5]: > 10000 nM

SMILES: CN1CCN(C(=O)c2ccc(Nc3nc(N[C@H]4CC[C@H](NC(=O)N(C)C)CC4)cnc3C(N)=O)cc2)CC1 [Example D-69, 3-{[4-(4-methylpiperazine-1-carbonyl)phenyl]amino}-5-{[(1 r,4r)-4-[(dimethylcarbamoyl)amino]cyclohexyl]amino}pyrazine-2-carboxamide]
- IC50 [1]: 10 to 100 nM
- IC50 [2]: 10 to 100 nM
- IC50 [3]: 1000 to 10000 nM
- IC50 [4]: 100 to 1000 nM
- IC50 [5]: 1000 to 10000 nM

SMILES: CN1CCN(C(=O)c2ccc(Nc3nc(N[C@H]4CC[C@H](NC(=O)c5ccc(C6CC6)cc5F)CC4)cnc3C(N)=O)cc2)CC1 [Example D-70, 3-{[4-(4-methylpiperazine-1-carbonyl)phenyl]amino}-5-{[(1 r,4r)-4-(4-cyclopropyl-2-fluorobenzamido)cyclohexyl]amino}pyrazine-2-carboxamide]
- IC50 [1]: 10 to 100 nM
- IC50 [2]: 100 to 1000 nM
- IC50 [3]: 100 to 1000 nM
- IC50 [4]: 100 to 1000 nM
- IC50 [5]: 100 to 1000 nM

SMILES: CN1CCN(C(=O)c2ccc(Nc3nc(N[C@H]4CC[C@@H](NC(=O)c5ccc(C6CC6)cc5F)CC4)cnc3C(N)=O)cc2)CC1 [Example D-71, 3-{[4-(4-methylpiperazine-1-carbonyl)phenyl]amino}-5-{[(1 s,4s)-4-(4-cyclopropyl-2-fluorobenzamido)cyclohexyl]amino}pyrazine-2-carboxamide]
- IC50 [1]: 10 to 100 nM
- IC50 [2]: 10 to 100 nM
- IC50 [3]: 1000 to 10000 nM
- IC50 [4]: 100 to 1000 nM
- IC50 [5]: 100 to 1000 nM
